Measured values taken from US20240009174A1, “METHODS FOR DISRUPTING MITOCHONDRIAL UNFOLDED PROTEIN RESPONSE” (Health Research, Inc., priority 2020, published 2024).

Tests used:
Type in all cases: cell-based
LNCaP and PC-3 cells [1] = assay: Cellular ATP level
Description: FIG. 7. Pharmacological inhibition of HSP60-ClpP interaction induces metabolic stress in PCa cells. (A) LNCaP and PC-3 cells were pre-treated with either rotenone or antimycin-A followed by DCEM1 treatment and mitochondrial ROS was analyzed as described in material and methods (data represented as fold change compared to control). In (A), the bars in each series from left to right are control, DCEM1, Rot+DCEM1, Anti A+DCEM1, Rot, and Anti A (B) ClpP protein was over-expressed in LNCaP and PC-3 cells followed by DCEM1 treatment and mitochondrial ROS was analyzed as described in material and methods (Data represented as fold change compared to control). […] (C) ClpP protein was over-expressed in LNCaP and PC-3 cells followed by DCEM1 treatment and level of poly-ubiquitinated protein was analyzed by western blotting. (D) ClpP protein was over-expressed in LNCaP and PC-3 cells followed by DCEM1 treatment and DEVDase activity was analyzed as described in material and methods (Data represented as fold change compared to control). […] (E) Mitochondrial membrane potential (mitoMP) was analyzed in LNCaP and PC-3 cells treated with DCEM1 as described in material and methods (Data represented as fold change compared to control). […] (F) ATP level was analyzed in LNCaP and PC-3 cells treated with DCEM1 as described in material and methods (Data represented as fold change compared to control). […]

LNCaP and PC-3 cells [2] = assay: DEVDase (caspase) activity in cell lysates; settings: 24 and 48 hours
Description: FIG. 6. Pharmacological inhibition of HSP60-ClpP interaction induces UPR^mt and PCa cell death. (A) Docking of DCEM1 into apical domain of HSP60. (B) LNCaP and PC-3 cells were treated with DCEM1 for 24 hours and HSP60-ClpP interaction was analyzed by co-immunoprecipitation assay. (C) LNCaP and PC-3 cells were treated with DCEM1 for 24 hours and mitoROS levels were analyzed by flow cytometry using mitoSOX dye. (D) LNCaP and PC-3 cells were treated with DCEM1 for 24 hours and poly-Ub protein levels were analyzed by western blotting. (E) LNCaP and PC-3 cells were treated with DCEM1 for 24 and 48 hours and apoptotic cell populations were analyzed by flow cytometry using Annexin V FITC/PI method as explained in materials and methods. […] (F) LNCaP and PC-3 cells were treated with DCEM1 for 24 and 48 hours and lysates were prepared and analyzed for DEVDase activity using specific peptide substrate. […] (G) LNCaP and PC-3 cells were pre-treated with SKQ1 followed by DCEM1 treatment and analyzed for cell viability by MTT assay. (H) LNCaP and PC-3 cells were treated with either DCEM1 or H2O2 (200 μM) for 24 hours and total DNA were isolated and analyzed for mtDNA damage as described in materials and methods.
FIG. 7. […] (C) ClpP protein was over-expressed in LNCaP and PC-3 cells followed by DCEM1 treatment and level of poly-ubiquitinated protein was analyzed by western blotting. […]

HSP60-ClpP interaction = molecular target: T1, HSP60-ClpP interaction (Homo sapiens, UniProt P10809); assay: HSP60-ClpP co-immunoprecipitation assay in PCa cells; settings: LNCaP and PC-3 cells, 24 hours
T1 construct: endogenous in cells
Description: FIG. 6. Pharmacological inhibition of HSP60-ClpP interaction induces UPR^mt and PCa cell death. (A) Docking of DCEM1 into apical domain of HSP60. (B) LNCaP and PC-3 cells were treated with DCEM1 for 24 hours and HSP60-ClpP interaction was analyzed by co-immunoprecipitation assay. (C) LNCaP and PC-3 cells were treated with DCEM1 for 24 hours and mitoROS levels were analyzed by flow cytometry using mitoSOX dye. (D) LNCaP and PC-3 cells were treated with DCEM1 for 24 hours and poly-Ub protein levels were analyzed by western blotting. (E) LNCaP and PC-3 cells were treated with DCEM1 for 24 and 48 hours and apoptotic cell populations were analyzed by flow cytometry using Annexin V FITC/PI method as explained in materials and methods. In (E) top panel, the bars in each series from left to right are control, 5, 10, and 20, and in (E) bottom panel, the bars in each series from left to right are DMSO, 5, 10, and 20. (F) LNCaP and PC-3 cells were treated with DCEM1 for 24 and 48 hours and lysates were prepared and analyzed for DEVDase activity using specific peptide substrate. […] (G) LNCaP and PC-3 cells were pre-treated with SKQ1 followed by DCEM1 treatment and analyzed for cell viability by MTT assay. (H) LNCaP and PC-3 cells were treated with either DCEM1 or H2O2 (200 μM) for 24 hours and total DNA were isolated and analyzed for mtDNA damage as described in materials and methods. […]

T1 sequence (P10809 27-573): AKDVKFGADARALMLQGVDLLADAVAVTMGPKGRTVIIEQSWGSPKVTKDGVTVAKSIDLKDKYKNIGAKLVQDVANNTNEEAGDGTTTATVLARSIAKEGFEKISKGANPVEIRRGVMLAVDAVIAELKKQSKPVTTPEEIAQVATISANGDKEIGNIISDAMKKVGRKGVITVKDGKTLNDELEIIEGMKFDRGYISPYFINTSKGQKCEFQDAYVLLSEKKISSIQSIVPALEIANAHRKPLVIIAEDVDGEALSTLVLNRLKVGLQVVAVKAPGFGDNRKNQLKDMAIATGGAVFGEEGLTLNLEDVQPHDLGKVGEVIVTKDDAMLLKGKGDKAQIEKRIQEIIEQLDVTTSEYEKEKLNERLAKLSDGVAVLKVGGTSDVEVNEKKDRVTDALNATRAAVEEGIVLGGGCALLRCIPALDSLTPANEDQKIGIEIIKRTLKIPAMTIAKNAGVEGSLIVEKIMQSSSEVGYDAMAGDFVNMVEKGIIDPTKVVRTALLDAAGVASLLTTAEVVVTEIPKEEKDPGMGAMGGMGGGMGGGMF

CCOc1cc(CNCc2nc3ccccc3[nH]2)ccc1OCc1cccs1 [DCEM1]
cellular ATP (LNCaP and PC-3 cells [1]): reduction of cellular ATP
caspase (DEVDase) activity (LNCaP and PC-3 cells [2]): robust caspase activity
HSP60-ClpP interaction by co-immunoprecipitation (HSP60-ClpP interaction): inhibited HSP60-ClpP interactions in a dose dependent manner
